≈ marks a conversion by molar mass, not a printed value.
Columns and labels:
[1] = format: physicochemical
Protocol: The storage stability of the above crystalline product and L-cysteine hydrochloride anhydride is measured by keeping them at 40° C. The results are shown in the accompanying FIG. 3.

[2] = Solubility in water; format: physicochemical; conditions: 10° C.

Structure (SMILES): N[C@@H](CS)C(=O)O [di-L-cysteine L-malate]
- stability in the crystalline form [1]: extremely stable
- storage stability [1]: excellent stability
- solubility [2]: 222 mg/mL (≈ 1830 mM)

Reference: patent US4438044A, “Di-L-cysteine L-malate and process for the production thereof” (priority 1980, dated 1984)
